From patent US20120136046A1, “METHOD OF TREATING AGE RELATED DISORDERS” (Chronos Therapeutics Limited, priority 2009, published 2012) come the findings set out here.

Molecules are shown by their SMILES.

For one data set, the system named is C. elegans. The data set can be described thus: C. elegans lifespan, percentage of living worms over time. The format is in vivo. The note with it: FIG. 5. As for the experimental part:
FK-506 was added to C. elegans during the timed egg laying stage and lifespan was measured as described in Sutphin, G. L., and Kaeberlein, M., (2009) J. Vis. Exp, 27. Briefly this method comprises synchronising a population of worms and measuring the percentage of living worms at a range of time points, scoring live worms by their ability to respond to physical stimulus.

The subject of the next data set is S. cerevisiae. The experiment in a line: Chronological lifespan of yeast, outgrowth method (Bioscreen C). The note with it: FIG. 4. In kind it is cell-based. The method, then:
Lifespan was measured using the outgrowth method described by Murakami, C. and Kaeberlein, M., (2009) J. Vis. Exp, 27. Briefly, chronological lifespan of yeast refers to the profile of viability of an ageing yeast culture over time. To measure this a yeast culture is grown in liquid media until the glucose carbon source is exhausted and the cells stop dividing. At this point the proportion of cells which are alive and able to divide is measured by observing the outgrowth characteristics of a fresh inoculate of the ageing culture using a Bioscreen™ C machine (Oy Growth Curves Ab Ltd, Finland). Viabilities at various time points are compared to determine the chronological lifespan of the culture.

The test system of data set [1] is MRC5 human fibroblast cell line. The experiment in a line: Cell division rate / replicative lifespan of MRC5 fibroblasts. The format is cell-based. The method, then: The cell division rate was measured using the method of Fairweather, D. S., M. Fox, and G. P. Margison, (1987), Exp Cell Res, 168(1): p. 153-9. Briefly, the replicative lifespan of MRC5 cells are measured by growing them on the surface of dishes until the reach confluencey whereupon they are split at a 1:2 ratio (i.e. diluted 1 in 2). The number of times the culture is split is equal to that of the number of divisions the cells are able to undertake which is the cultures replicative lifespan. MRC5 cells are only able to divide a finite number of times, and as they reach the end of their life the time they take to undergo cell division increases. In this instance the rate of cell division is used as a measure of age.

On to `C=CC[C@@H]1/C=C(\C)C[C@H](C)C[C@H](OC)[C@H]2O[C@@](O)(C(=O)C(=O)N3CCCC[C@H]3C(=O)O[C@H](/C(C)=C/[C@@H]3CC[C@@H](O)[C@H](OC)C3)[C@H](C)[C@@H](O)CC1=O)[C@H](C)C[C@@H]2OC` [FK-506, fujimycin], for which the “lifespan of C. elegans” value in the data set with C. elegans (added during the timed egg laying stage) was “prolongs the lifespan of C. elegans in a dose dependent manner”. In the data set on C. elegans (addition of 4μ/ml), the “viability of the organisms (chronological lifespan)” value is listed as “significant increase in the viability”. In addition, in the data set on S. cerevisiae (0.1 ng/ml in the culture medium), the “effect on the chronological lifespan of the cells compared to the control” value was “no significant effect”. In the data set on S. cerevisiae (1 ng/ml or more in the culture medium), the “effect on the median lifespan of the yeast cells compared to the control” value is listed as “significant effect increasing the median lifespan”. Further, in data set [1] (MRC5 cells, FIG. 6), the “age dependent reduction in cell division rate” value is “appears to reverse age dependent reduction in cell division rate”. The “division time compared to a control having no FK-506 added” value in data set [1] (MRC5 cells, addition after 39 divisions) was “reduction of the division time”. Moreover, the “toxicity to the cells” value in data set [1] (higher concentrations) is “becomes toxic to the cells”.
